Assay results taken from US5482941A, “Quinazolinone antianginal agents” (Pfizer Inc., priority 1991, dated 1996).
pIC50: −log10 of the molar value.

Experiments:
rabbit = assay: Safety profile, acute toxicity in rabbit; assay type: in vivo
[1] = molecular target: T1, calcium/calmodulin (Ca/CAM)-independent cGMP PDE (Oryctolagus cuniculus, UniProt G1SX67); assay: In vitro inhibition of Ca/CAM-independent cGMP PDE; assay type: biochemical, rabbit; conditions: Ca/CAM-independent cGMP PDE from rabbit platelets, in vitro
T1 construct: The PDE enzymes are isolated from rabbit platelets and rat kidney; from tissue; host or cells: rabbit platelets
Method: (§1) Phosphodiesterase activity
(§2) Compound affinities for cGMP and cAMP PDEs are assessed by determination of their IC50 values (the concentration of inhibitor required for 50% inhibition of enzyme activity). The PDE enzymes are isolated from rabbit platelets and rat kidney, essentially by the method of W. J. Thompson et al. (Biochem., 1971, 10, 311). The calcium/calmodulin (Ca/CAM)-independentcGMP PDE and the cGMP-inhibited cAMP PDE enzymes are obtained from rabbit platelets whilst, of the four major PDE enzymes of the rat kidney, the Ca/CAM-dependent cGMP PDE (fraction I) is isolated. Assays are performed using a modification of the "batch" method of W. J. Thompson and M. M. Appleman (Biochem., 1979, 18, 5228).

[2] = tested on: calcium/calmodulin (Ca/CAM)-independent cGMP PDE; assay: In vitro inhibition of Ca/CAM-independent cGMP PDE; assay type: biochemical, rabbit; conditions: between Ca/CAM-independent cGMP PDE and cGMP-inhibited cAMP PDE (IC50 cAMP / IC50 cGMP)
Method: as §1, §2

cGMP-inhibited cAMP PDE = molecular target: T2, cGMP-inhibited cAMP PDE (Oryctolagus cuniculus, UniProt G1ST54); assay: In vitro inhibition of cGMP-inhibited cAMP PDE; assay type: biochemical; conditions: cGMP-inhibited cAMP PDE from rabbit platelets
T2 construct: The PDE enzymes are isolated from rabbit platelets and rat kidney; from tissue; host or cells: rabbit platelets
T2 sequence (G1ST54 1-1128): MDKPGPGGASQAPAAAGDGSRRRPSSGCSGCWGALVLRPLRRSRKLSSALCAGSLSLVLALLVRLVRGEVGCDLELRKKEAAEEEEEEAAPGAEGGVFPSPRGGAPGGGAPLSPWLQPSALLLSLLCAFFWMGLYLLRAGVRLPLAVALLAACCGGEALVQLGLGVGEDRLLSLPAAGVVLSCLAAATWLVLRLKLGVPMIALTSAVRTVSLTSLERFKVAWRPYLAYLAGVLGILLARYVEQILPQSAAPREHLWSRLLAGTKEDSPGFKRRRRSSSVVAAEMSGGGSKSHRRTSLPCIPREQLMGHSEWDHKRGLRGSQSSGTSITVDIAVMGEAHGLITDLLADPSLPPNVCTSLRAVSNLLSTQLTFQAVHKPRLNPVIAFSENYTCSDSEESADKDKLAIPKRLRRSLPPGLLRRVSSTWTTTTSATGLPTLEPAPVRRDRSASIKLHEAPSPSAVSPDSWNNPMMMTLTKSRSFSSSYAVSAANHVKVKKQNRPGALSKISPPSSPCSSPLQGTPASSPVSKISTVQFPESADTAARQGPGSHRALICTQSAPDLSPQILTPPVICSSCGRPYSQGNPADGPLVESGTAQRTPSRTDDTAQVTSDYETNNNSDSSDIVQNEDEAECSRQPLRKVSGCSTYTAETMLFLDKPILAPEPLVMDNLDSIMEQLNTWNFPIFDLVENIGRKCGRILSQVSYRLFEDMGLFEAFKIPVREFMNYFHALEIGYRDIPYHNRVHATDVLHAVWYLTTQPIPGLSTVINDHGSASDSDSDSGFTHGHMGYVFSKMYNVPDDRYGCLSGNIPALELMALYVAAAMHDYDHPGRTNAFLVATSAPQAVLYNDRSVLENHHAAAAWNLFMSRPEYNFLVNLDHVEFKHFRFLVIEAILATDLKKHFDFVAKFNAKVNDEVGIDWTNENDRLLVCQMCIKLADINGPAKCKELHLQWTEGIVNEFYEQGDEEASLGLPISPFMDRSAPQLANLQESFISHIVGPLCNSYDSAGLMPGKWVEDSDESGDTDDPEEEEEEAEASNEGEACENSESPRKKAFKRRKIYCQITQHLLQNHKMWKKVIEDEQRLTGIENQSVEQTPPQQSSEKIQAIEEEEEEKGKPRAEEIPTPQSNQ
Method: as §1, §2

pIC50 [1]	pIC50 (cGMP-inhibited cAMP PDE)	SMILES	signs of adverse acute toxicity (rabbit; doses of up to 10 mg/kg i.d.)	SELECTIVITY RATIO [2]	signs of adverse acute toxicity (rabbit; doses of up to 1 mg/kg i.d.)
		CCOc1ccc(S(=O)(=O)N2CCN(CCO)CC2)cc1-c1nc2cccc(C)c2c(=O)[nH]1 [Example 4, 2-{2-Ethoxy-5-[4-(2-hydroxyethyl)-1-piperazinylsulphonyl]phenyl}-5-methylquinazolin-4(3H)-one]	no signs of adverse acute toxicity being observed		
8.19	< 4.00	CCCOc1ccc(S(=O)(=O)N2CCN(CCO)CC2)cc1-c1nc2c(C)cccc2c(=O)[nH]1 [Example 6]		> 15,384	
7.27	< 4.00	CCCOc1ccc(C=CC(=O)OC(C)(C)C)cc1-c1nc2c(C)cccc2c(=O)[nH]1 [Example 10, t-Butyl 3-(8-methylquinazolin-4(3H)-on-2-yl)-4-n-propoxycinnamate]		> 1,851	
7.28	< 4.00	CCOc1ccc(C(O)CN2CCOCC2)cc1-c1nc2c(C)cccc2c(=O)[nH]1 (centres unmarked) [Example 17, 2-[2-Ethoxy-5-(1-hydroxy-2-morpholinoethyl)phenyl]-8-methylquinazolin-4(3H)-one]		> 1,886	
7.47	4.17	CCOc1ccc(S(=O)(=O)N2CCN(CCO)CC2)cc1-c1nc2c(C(N)=O)cccc2c(=O)[nH]1 [Example 19, 8-Carbamoy-2-{2-ethoxy-5-[4-(2-hydroxyethyl)-1-piperazinylsulphonyl]phenyl}quinazolin-4(3H)-one]		1,970	
7.85	< 4.00	CCCOc1ccccc1-c1nc2c(C(=O)NCC)cccc2c(=O)[nH]1 [Example 21, 8-Ethylcarbamoyl-2-(2-n-propoxyphenyl)quinazolin-4(3H)-one]		> 7,142	
7.31	< 4.00	CCCOc1ccc(C(C)=O)cc1-c1nc2c(C)cccc2c(=O)[nH]1 [Example 22, 2-(5-Acetyl-2-n-propoxyphenyl)-8-methylquinazolin-4(3H)-one]			

SMILES	pIC50 [1]	pIC50 (cGMP-inhibited cAMP PDE)	signs of adverse acute toxicity (rabbit; doses of up to 10 mg/kg i.d.)	SELECTIVITY RATIO [2]	signs of adverse acute toxicity (rabbit; doses of up to 1 mg/kg i.d.)
CCOc1ccc(S(=O)(=O)N2CCN(CCO)CC2)cc1-c1nc2c(C)cccc2c(=O)[nH]1 [Example 5, 2-{2-Ethoxy-5-[4-(2-hydroxyethyl)-1-piperazinylsulphonyl]phenyl}-8-methylquinazolin-4(3H)-one]	7.43	< 4.00	no signs of adverse acute toxicity being observed	> 2,702	
CCCOc1ccc(C=CC(=O)N2CCN(C)CC2)cc1-c1nc2c(C)cccc2c(=O)[nH]1 [Example 9]	7.43	< 4.00		> 2,702	no signs of adverse acute toxicity being observed
